This note sets out measurements from patent US4091006A, “Esters of 3-hydroxyindone compounds” (priority 1975, dated 1978).

Data set [1] concerns eggs of the two-spotted mite. Description: Fumigant toxicity, Method 1 (deposit in pie plate). The settings on record: deposit approx. 160 μg per square cm, 4 days. In kind it is in vivo. The method, then:
(§1) Two methods were used to evaluate fumigant properties:
Method 1: Fifty mg. of each compound were dissolved in 5 ml. of acetone and poured into a 20 cm. (bottom diameter) Pyrex No. 210 pie plate. The acetone was allowed to evaporate leaving a deposit of approximately 160 μg. per square cm. The plate was then placed in the bottom of a 50 pound metal lard container (about 30 cm. in diameter and 34 cm. high). Two excised bean plants, held in a 250 ml. Erlenmeyer flask containing 100 ml. of tap water and infested with eggs of the two-spotted mite, were placed in the center of the pie plate. The container was held in the insectary (temperature 80±5° F., 50±5% R. H.) for four days before mortality determinations were made.

The test system of a further data set is Cotton. The experiment in a line: Phytotoxicity, cotton. Particulars: 2500 ppm, 10 days.
Data set [2] concerns adults and nymphal stages of the two-spotted mite. The experiment in a line: Mite Foliage Spray Test. Format: in vivo, Tetranychus urticae (Koch). Further details: key: 1: no mortality; 3: an approximately 50% mortality; 5: 100% mortality. Particulars: 4 days. The source says:
(§2) The test procedures were as follows:
(§3) Compositions were rated on the basis of percent kill with a rating of 1 indicating no mortality; 3 signifying an approximately 50% mortality and 5 indicating 100% mortality at the indicated dosage.

Data set [3] concerns Perennial rye grass, crabgrass, red root pigweed, mustard. Description: Preliminary Herbicide Seed Germination Test. Particulars: each rated 1 (no injury) to 5 (no seedlings emerged).
A further data set concerns Tomato. Description: Phytotoxicity, tomato. The settings on record: 2500 ppm, 10 days.
Another data set relates to Corn. The experiment in a line: Phytotoxicity, corn. The settings on record: 2500 ppm, 10 days.
In data set [4] the test system is egg of the two-spotted mite. Description: Mite Ovicide Test. Particulars: spray on eggs, 4 days. Further details: key to Mite Ova rating: 1: no mortality; 3: an approximately 50% mortality; 5: 100% mortality. Format: in vivo, Tetranychus urticae (Koch).
From the text: as §2
The plants were allowed to dry thoroughly.
as §3

The subject of the next data set is Bean. The experiment in a line: Phytotoxicity, bean. Particulars: 2500 ppm, 10 days.
Data set [5] has as its system egg forms of the two-spotted mite. Description: Fumigant toxicity, Method 2 (treated plants near untreated infested plants). In kind it is in vivo. The settings on record: 500 ppm dip, 4 days. The method, then: as §1
Method 2: Excised bean plants infested with egg forms of the two-spotted mite were dipped in an aqueous preparation (500 ppm) of the test compound. The treated plants were transferred to 250 ml. Erlenmeyer flasks containing 100 ml. of tap water. Four flasks holding treated plants were evenly spaced around a similar flask in which were placed untreated mite-infested plants so that the leaves of the treated foliage were in close proximity (1-3 inches) to the untreated plants. Four days later mortality determinations were made.

A further data set concerns two-spotted mite. The experiment in a line: Small scale field tests, mite control on Tendergreen bean plants. Format: in vivo, Tetranychus urticae (Koch). The method, then:
Selected enol ester compositions were evaluated in small scale field tests to determine whether the excellent miticidal properties observed in greenhouse testing would be obtained under actual conditions of field use.
In Test I 500 ppm aqueous dispersions were prepared as described above. In tests II and III various dilutions of the test compounds ranging from 125 ppm to 1000 ppm were prepared and used. In each case the test dispersions were applied to a minimum of two replicate test plots measuring five feet in length and containing healthy young Tendergreen bean plants which had previously been infested with two-spotted mite (Tetranychus urticae (Koch)). Dispersions of the test compounds at each concentration level were applied to individual replicate plots using 1/2 gallon garden sprayers equipped with spray nozzles to apply approximately 250 ml. of test solution to each replicate. The effectiveness of the treatment was determined at intervals following application, by microscopic examination of five leaves selected at random from each replicate plot. The degree of effectiveness for each leaf was rated on a scale of from 1 to 5 with 1 indicating no control in reference to a standard sprayed with a mixture of solution less test compound and 5 indicating complete control. The results obtained from inspection of sample leaves were then averaged to give a numerical indication of the degree of control for each compound tested at the concentration applied.

[6] abbreviates: rating/maximum 20: 100 ppm only, four species.
[7] abbreviates: rating/maximum 15: 100 ppm only, crabgrass omitted.
Setting [8] is: rating/maximum 40: 100 and 1000 ppm, four species, 10-12 days.

Experimental for Corn: (§4) Experiments were also conducted to determine the phytotoxicity of representative enol ester compositions with respect to healthy fresh plants. […] The test plants were sprayed in accordance with the procedure described above for the Mite Foliage Spray Test so as to deliver approximately 100 milliliters of test solution to the leaves of each plant tested. The sprayed plants and controls were set aside for approximately 1 hour to allow the solutions to dry and were then placed in the greenhouse. After 10 days the plants were visually inspected to determine the extent of foliage injury. A rating of 1 indicates no perceptible injury; 5 indicates the plant was dead and ratings of 2, 3 and 4 indicate intermediate degrees of injury based upon the number and extent to which leaves were injured.
Experimental for Cotton: as §4
Experimental for Tomato: as §4

Take `CCCCC(CC)COC(=O)OC1=C(c2c(C)cc(C)cc2C)C(=O)c2ccccc21` (stereo not drawn) [2-(2',4',6'-Trimethylphenyl)-3-(2-ethylhexyloxycarbonyloxy)indone]: the “Fumigant Toxicity Method 1” value in data set [1] is recorded as 1. In addition, the “Phytotoxicity Rating, Cotton” value in the data set with Cotton was 1. Also, in [2], the “Mite Adult rating” value was 5 (100% mortality). Moreover, in [3] (setting [6]), the “Herbicide (total preemergence rating)” value is reported as 15/20. Also, in the data set on Tomato, the “Phytotoxicity Rating, Tomato” value is 1. Besides, in the data set with Corn, the “Phytotoxicity Rating, Corn” value came out at 2. Also, the “Mite Ova rating” value in data set [4] was 5 (100% mortality). In the data set with Bean, the “Phytotoxicity Rating, Bean” value is 1. Moreover, in data set [5], the “Fumigant Toxicity Method 2” value amounted to 1.
Turning to `CCCCCCCCCCCCOC(=O)OC1=C(c2c(C)cc(C)cc2C)C(=O)c2ccccc21` [2-(2',4',6'-Trimethylphenyl)-3-(dodecyloxycarbonyloxy)indone], the “Fumigant Toxicity Method 1” value in data set [1] was determined as 1. Further, the “Phytotoxicity Rating, Cotton” value in the data set with Cotton stood at 1. Further, the “Mite Adult rating” value in data set [2] is listed as 5 (100% mortality). In addition, in [3] (setting [6]), the “Herbicide (total preemergence rating)” value was 17/20. Further, in the data set with Tomato, the “Phytotoxicity Rating, Tomato” value came to 1. For the same compound, the “Phytotoxicity Rating, Corn” value in the data set on Corn came out at 2. The “Mite Ova rating” value in data set [4] is given as 5 (100% mortality). Besides, in the data set on Bean, the “Phytotoxicity Rating, Bean” value was 1. Further, the “Fumigant Toxicity Method 2” value in data set [5] was 1.
Consider `Cc1cc(C)c(C2=C(OC(=O)CCCCl)c3ccccc3C2=O)c(C)c1` [2-(2',4',6'-Trimethylphenyl)-3-(4-chlorobutyryloxy)indone], for which, in [1], the “Fumigant Toxicity Method 1” value is given as 1. Besides, in the data set with Cotton, the “Phytotoxicity Rating, Cotton” value is on record as 2. Also, the “Mite Adult rating” value in data set [2] is given as 5 (100% mortality). Further, the “Herbicide (total preemergence rating)” value in data set [3] (setting [7]) was 14/15. Also, in the data set on Tomato, the “Phytotoxicity Rating, Tomato” value is listed as 2. Further, the “Phytotoxicity Rating, Corn” value in the data set on Corn worked out at 2. In [4], the “Mite Ova rating” value is listed as 5 (100% mortality). Also, the “Phytotoxicity Rating, Bean” value with Bean turned out to be 1. Moreover, the “Fumigant Toxicity Method 2” value in data set [5] worked out at 1.
Consider `CCC(=O)OC1=C(c2c(C)cc(C)cc2C)C(=O)c2ccccc21` [2-(2',4',6'-Trimethylphenyl)-3-(propionyloxy)indone], for which, in data set [1], the “Fumigant Toxicity Method 1” value is 5 (80-100% control). Also, the “Phytotoxicity Rating, Cotton” value with Cotton is on record as 1. In addition, the “Mite Adult rating” value in data set [2] was 5 (100% mortality). Moreover, the “Herbicide (total preemergence rating)” value in [3] (setting [8]) was 32/40. Also, the “Phytotoxicity Rating, Tomato” value in the data set with Tomato came to 2. Besides, the “Phytotoxicity Rating, Corn” value in the data set on Corn turned out to be 2. The “Mite Ova rating” value in data set [4] is recorded as 5 (100% mortality). For the same compound, in the data set on Bean, the “Phytotoxicity Rating, Bean” value is 1. The “Fumigant Toxicity Method 2” value in [5] was 5 (80-100% control).
For the compound “2-(2',5'-Dimethylphenyl)-3-(neodecanoyloxy)indone”, the “Phytotoxicity Rating, Cotton” value in the data set on Cotton was 1. The “Mite Adult rating” value in data set [2] is given as 1. Besides, in data set [3] (setting [6]), the “Herbicide (total preemergence rating)” value is listed as 4/20. Also, in the data set on Tomato, the “Phytotoxicity Rating, Tomato” value amounted to 1. Further, the “Phytotoxicity Rating, Corn” value in the data set on Corn stood at 1. For the same compound, in data set [4], the “Mite Ova rating” value was 3 (an approximately 50% mortality). In addition, the “Phytotoxicity Rating, Bean” value in the data set on Bean is on record as 1.
On to `CCCCCCCCCCCCCCCCCC(=O)OC1=C(c2c(C)cc(C)cc2C)C(=O)c2ccccc21` [2-(2',4',6'-Trimethylphenyl)-3-(octadecanoyloxy)indone], for which the “Fumigant Toxicity Method 1” value in data set [1] is 1. In the data set on Cotton, the “Phytotoxicity Rating, Cotton” value was determined as 1. Moreover, in data set [2], the “Mite Adult rating” value is listed as 5 (100% mortality). In [3] (setting [6]), the “Herbicide (total preemergence rating)” value is 19/20. The “Phytotoxicity Rating, Tomato” value with Tomato was determined as 1. Also, in the data set on Corn, the “Phytotoxicity Rating, Corn” value was 1. The “Mite Ova rating” value in data set [4] was 5 (100% mortality). For the same compound, the “Phytotoxicity Rating, Bean” value with Bean is recorded as 1. Further, in data set [5], the “Fumigant Toxicity Method 2” value turned out to be 1.
In the case of `CC=CCCCCCCCC(=O)OC1=C(c2c(C)cc(C)cc2C)C(=O)c2ccccc21` [2-(2',4',6'-Trimethylphenyl)-3-(undec-9-enoyloxy)indone], in data set [1], the “Fumigant Toxicity Method 1” value stood at 1. Moreover, the “Phytotoxicity Rating, Cotton” value in the data set on Cotton amounted to 1. In addition, the “Mite Adult rating” value in data set [2] is 5 (100% mortality). Also, the “Herbicide (total preemergence rating)” value in data set [3] (setting [6]) is 19/20. Also, the “Phytotoxicity Rating, Tomato” value in the data set with Tomato came to 2. In addition, in the data set with Corn, the “Phytotoxicity Rating, Corn” value turned out to be 2. In data set [4], the “Mite Ova rating” value is on record as 5 (100% mortality). In addition, the “Phytotoxicity Rating, Bean” value in the data set on Bean was determined as 2. In addition, in [5], the “Fumigant Toxicity Method 2” value is 1.
`Cc1cc(C)c(C2=C(OC(=O)CC3C=CCC3)c3ccccc3C2=O)c(C)c1` (stereo not drawn) [2-(2',4',6'-Trimethylphenyl)-3-(cyclopent-2-en-1-ylacetoxy)indone]: the “Fumigant Toxicity Method 1” value in data set [1] stood at 1. Moreover, the “Phytotoxicity Rating, Cotton” value in the data set with Cotton was found to be 2. The “Mite Adult rating” value in [2] was 5 (100% mortality). In addition, in data set [3] (setting [7]), the “Herbicide (total preemergence rating)” value is 11/15. Also, in the data set with Tomato, the “Phytotoxicity Rating, Tomato” value came out at 1. Besides, in the data set on Corn, the “Phytotoxicity Rating, Corn” value amounted to 1. In [4], the “Mite Ova rating” value is listed as 5 (100% mortality). Moreover, the “Phytotoxicity Rating, Bean” value with Bean was found to be 1. For the same compound, the “Fumigant Toxicity Method 2” value in data set [5] came out at 1.
As to `CC(C)(C)C(=O)OC1=C(c2c(Cl)cccc2Cl)C(=O)c2ccccc21` [2-(2',6'-Dichlorophenyl)-3-(pivaloyloxy)indone], the “Mite Adult rating” value in data set [2] is given as 5 (100% mortality). Moreover, the “Herbicide (total preemergence rating)” value in data set [3] (setting [8]) is on record as 30/40. In addition, in data set [4], the “Mite Ova rating” value is on record as 5 (100% mortality). For the same compound, the “Fumigant Toxicity Method 2” value in data set [5] stood at 3. Also, the “Average mite control rating, 1st Reading” value with two-spotted mite (Test I, 500 ppm, 4 days, scale 1 (no control) to 5 (complete control)) is 3.5; with two-spotted mite (Test II, 250 ppm, 3 days, scale 1 to 5), 2.3; with two-spotted mite (Test II, 500 ppm, 3 days, scale 1 to 5), 3.0; in the data set on two-spotted mite (Test II, 1000 ppm, 3 days, scale 1 to 5), 3.3. Also, the “Average mite control rating, 2nd Reading” value with two-spotted mite (Test I, 500 ppm, 8 days, scale 1 to 5) turned out to be 4.0; in the data set on two-spotted mite (Test II, 250 ppm, 7 days, scale 1 to 5), 3.7; in the data set on two-spotted mite (Test II, 500 ppm, 7 days, scale 1 to 5), 3.3; in the data set on two-spotted mite (Test II, 1000 ppm, 7 days, scale 1 to 5), 4.7.
Take `Cc1cc(C)c(C2=C(OC(=O)OC(C)C)c3ccccc3C2=O)c(C)c1` [2-(2',4',6'-Trimethylphenyl)-3-(Isopropoxycarbonyloxy)indone]: in data set [1], the “Fumigant Toxicity Method 1” value is 5 (80-100% control). For the same compound, the “Mite Adult rating” value in [2] was 5 (100% mortality). In addition, the “Herbicide (total preemergence rating)” value in data set [3] (setting [6]) is recorded as 18/20. Further, the “Mite Ova rating” value in data set [4] was 5 (100% mortality). In data set [5], the “Fumigant Toxicity Method 2” value is listed as 3.
With `CC(=O)OC1=C(c2c(C)cc(C)cc2C)C(=O)c2ccccc21` [2-(2',4',6'-Trimethylphenyl)-3-(acetoxy)indone], the “Fumigant Toxicity Method 1” value in data set [1] was 5 (80-100% control). For the same compound, the “Mite Adult rating” value in data set [2] is 5 (100% mortality). Also, in data set [3] (setting [8]), the “Herbicide (total preemergence rating)” value is 39/40. Also, in data set [4], the “Mite Ova rating” value is reported as 5 (100% mortality). Also, the “Fumigant Toxicity Method 2” value in data set [5] is recorded as 5 (80-100% control).
As to “2-(2'-Methylphenyl)-3-(neodecanoyloxy)indone”, the “Phytotoxicity Rating, Cotton” value in the data set on Cotton came out at 1. Also, the “Mite Adult rating” value in data set [2] came to 1. In addition, the “Herbicide (total preemergence rating)” value in data set [3] (setting [6]) is 4/20. Besides, the “Phytotoxicity Rating, Tomato” value with Tomato was found to be 1. In the data set on Corn, the “Phytotoxicity Rating, Corn” value is on record as 1. The “Mite Ova rating” value in data set [4] was determined as 1. Also, in the data set with Bean, the “Phytotoxicity Rating, Bean” value is listed as 1.
